Experimental data published in patent US7063946B2, “Methods, reagents, kits and apparatus for protein function analysis” (Meso Scale Technologies, LLC., priority 2001, dated 2006).
pIC50: −log10 of the molar value.

How the values were obtained:
pEY = experiment: In vitro kinase library screen: activity towards pEY; format: biochemical; conditions: 5 ul of expressed protein
Method: Proteins were produced in an in vitro transcription and translation reaction. […] The unbound components of the reaction containing endogenous kinases were removed by three washes with TT-buffer (25 mM Tris-HCl buffer pH 7.4 and 0.004% Triton), two five minutes washings with high-salt wash buffer (25 mM Tris-HCl buffer pH 7.4, 0.004% Triton, 1M NaCl and 5 mM DTT) and 3 more washes with TT-buffer. To these immobilized and purified proteins a tyrosine kinase substrate, 5 nM pEY (poly Glu-Tyr, Sigma, MO), was added in a 50 μl reaction solution containing 5 mM MgCl2, 5 mM MnCl2, 100 μM ATP, 25 mM Tris-HCl buffer pH 7.4, 0.05 mM Na3VO4, 0.004% TritonX-100, 2 mM DTT and EDTA-free protease inhibitor (Roche Molecular Biochemicals). This mixture was incubated with shaking at room temperature overnight to allow phosphorylation of the pEY substrate by the immobilized kinases. Following this incubation, 45 μl of this mixture was transferred to a streptavidin or avidin-coated NPT IPR plate coated with biotinylated anti-phosphotyrosine antibody (PY20, Zymed labs, CA) followed by incubation for 30 minutes at room temperature to allow the binding of the phosphorylated pEY substrate to the PY20 coated NPT plate. Following this binding step, 50 ng Sulfo-TAG labeled anti-phosphotyrosine in buffer containing 25 mM Tris-HCl buffer pH 7.4, 5 mM MgCl2, 0.05 mM Na3VO4, 0.004% TritonX-100, 2 mM DTT and 0.05% IgG was added followed by incubation at room temperature for 30 mm. The unbound reagents were removed by one time washing with water, and the TAG label was detected in presence of 150 μl IPR assay buffer (0.4 mM Gly-Gly buffer, pH 7.8, 1 mM EDTA, 0.1 M TPA). The ECL signals were measured using an imaging plate reader.
(§1) Proteins were produced in an in vitro transcription and translation reaction as described in the Materials and Methods. […] The reaction was stopped by mixing with BB2 buffer. Biotinylated proteins from 50 μl of the mixture (representing 0.5 μl to 5 μl of TnT reaction) were immobilized onto streptavidin or avidin coated NPT-IPR plates by shaking at room temperature for 45 min. The activity of the immobilized protein towards pEY or autophosphorylation was further assayed by the methods described in examples 7 and 8.

[1] = tested on: autophosphorylation (phosphotyrosine); experiment: In vitro kinase library screen: autophosphorylation; format: biochemical
Method: Proteins were produced from DNA plasmids of Mock Luciferase, Promega, tyrosine kinase clone Spleen Tyrosine kinase (SYK, IMAGE ID# 3870426) and Eph receptor-A7 (EphA7, IMAGE ID# 3991628) (Incyte Genomics, CA) and immobilized on streptavidin or avidin coated NPT-IPR plates as described in the Example 7. To promote autophosphorylation in these immobilized and purified proteins, Mn++ ions were added in a 50 μl reaction containing 5 mM MgCl2, 5 mM MnCl2, 100 μM ATP, 25 mM Tris-HCl buffer pH 7.4, 0.05 mM Na3VO4, 0.004% TritonX-100, 2 mM DTT and EDTA-free protease inhibitor (Roche Molecular Biochemicals). This mixture was incubated with shaking at room temperature overnight to allow autophosphorylation. Following this incubation, wells were washed 2 times with TT-buffer and 2 times with water. Following this step, 50 ng Sulfo-TAG labeled anti-phosphotyrosine in buffer containing 25 mM Tris-HCl buffer pH 7.4, 5 mM MgCl2, 0.05 mM Na3VO4, 0.004% TritonX-100, 2 mM DTT and 0.05% IgG in a final volume of 50 μl was added followed by incubation at room temperature for 45 min. The unbound reagents were removed by one time washing with water, and the TAG label was detected in presence of 150 μl IPR assay buffer (0.4 mM Gly—Gly buffer, pH 7.8, 1 mM EDTA, 0.1 M TPA). The ECL signals were measured using an imaging plate reader.
as §1

[2] = tested on: pooled phosphopeptide:BSA conjugates (Pools A-D); experiment: Coded multiplex phosphopeptide binding assay with pooled peptide:BSA conjugates on 4 spots
Source text: To prepare the Multi-Spot IPR plates, in this example we made use of pools of the peptide:BSA conjugates to coat each of 4 spots per well in a 96 well plate. To achieve this we made the following pools; • Pool A; EGFR-pTyr1148, IkBa-24ppC, Myc-p58Tp62S. • Pool B; EGFR-pTyr992, EGFR-pTyr1148, Smad3C. • Pool C; EGFR-pTyr1068, IkBa-24ppC, Smad3C. • Pool D; EGFR-pTyr992, EGFR-pTyr1068, Myc-p58Tp62S.
This combination of the various peptides results in any single peptide being present in two pools. Each of these four pools is then spotted on to a unique spot in a 4 spot array. In this way any single binding protein with specificity for only one of the peptides would bind to two spots; the identity of the two spots would allow the identification of the peptide involved in the binding reaction.
Typically approximately 120 fmole of peptide:BSA conjugate in 0.25 μl was deposited on each spot of a 4-spot multi-array IPR plates using a BioDot Dispenser (Bio-Dot Inc., vIrvine Calif.). At this stage, the plates were dried then used or stored under desiccated condition. A few hours prior to usage, the plates were rehydrated and blocked with 3% BSA, in PBS.
To test the system the following EST clones IMAGE # 3491843, 4237375, 4398016, 4419252, 3872466, 3907115 were obtained. These clones express the following genes βTRCP1, βTRCP2, Grb2, PLCγ, CBP and Shc1, respectively. […] These DNAs were used to produce proteins as described in the Materials and Methods. Proteins were transferred to a well of the 4 spot peptide-coated and BSA blocked ECL plates. The binding assay (using Sulfo-TAG labeled streptavidin as a detection agent) was carried our according to the procedures described in Example 11.

[3] = tested on: tyrosine kinases reported to be the target of each inhibitor; conditions: read-out: reported IC50 concentration (1× concentration); for the kinase reported to be the target of the inhibitor; cited from earlier work

| Compound | HTS signal (pEY) | ECL signal [1] | other results |
| --- | --- | --- | --- |
| 3156953: IMAGE clone protein: Wee1, wee 1 homolog (S. pombe) [compound 3156953] | 981 | 27,452 |  |
| 3601246: IMAGE clone protein: FRK, B-cell src-homology tyrosine kinase [compound 3601246] | 15,235 | 28,243 |  |
| 3866791: IMAGE clone protein: JAK1, Janus kinase 1 [compound 3866791] | 729 |  |  |
| 3896359: IMAGE clone protein: FGFR1, fibroblast growth factor receptor 1 (fms-related TK2) [compound 3896359] | 2,339 | 7,696 |  |
| 3921724: IMAGE clone protein: FGR, FYN oncogene related to SRC [compound 3921724] | 93,081 | 241,697 |  |
| 3982920: IMAGE clone protein: Clk4, CDC like kinase 4 [compound 3982920] | 2,244 | 192,787 |  |
| 3989782: IMAGE clone protein: Yes, Yamaguchi sarcoma viral (v-yes) oncogene homolog [compound 3989782] | 2,208 | 4,542 |  |
| 3995512: IMAGE clone protein: CLK2, CDC-like kinase 2 [compound 3995512] | 634 | 20,748 |  |
| 4036253: IMAGE clone protein: CLK3, CDC-like kinase 3 [compound 4036253] | 704 | 42,712 |  |
| 4037899: IMAGE clone protein: FGFR1, fibroblast growth factor receptor 1 [compound 4037899] | 450,413 | 240,550 |  |
| 4181574: IMAGE clone protein: NTRK3, neurotrophic tyrosine kinase [compound 4181574] | 36,515 | 55,017 |  |
| 4191610: IMAGE clone protein: LCK, lymphocyte protein tyrosine kinase [compound 4191610] | 3,110 | 24,183 |  |
| 4343428: IMAGE clone protein: PTK2B, protein tyrosine kinase 2 beta [compound 4343428] | 57,486 | 274,742 |  |
| 4363897: IMAGE clone protein: FGR, FYN oncogene related to SRC [compound 4363897] | 402,243 | 44,220 |  |
| 4387232: IMAGE clone protein: CLK1, CDC-like kinase 1 [compound 4387232] | 5,109 | 423,938 |  |
| 4398016: IMAGE clone protein: Grb2 [compound 4398016] |  |  | Code (pattern of positive spots) [2]: C, D; Peptide determined from code [2]: EGFR-pTyr1068; ECL signal, spot A ([2]; Pool A, EGFR-pTyr1148, IkBa-24ppC, Myc-p58Tp62S): 36; ECL signal, spot B ([2]; Pool B, EGFR-pTyr992, EGFR-pTyr1148, Smad3C): 38; ECL signal, spot C ([2]; Pool C, EGFR-pTyr1068, IkBa-24ppC, Smad3C): 509; ECL signal, spot D ([2]; Pool D, EGFR-pTyr992, EGFR-pTyr1068, Myc-p58Tp62S): 386 |
| 4419031: IMAGE clone protein: BLK, B lymphoid tyrosine kinase [compound 4419031] | 37,907 | 146,775 |  |
| 4419700: IMAGE clone protein: LCK, lymphocyte-specific protein tyrosine kinase [compound 4419700] | 898 | 7,230 |  |
| 4419973: IMAGE clone protein: FGR, Gardner-Rasheed feline sarcoma viral (v-fgr) oncogene homolog [compound 4419973] | 104,946 | 117,395 |  |
| 4471986: IMAGE clone protein: ALK, anaplastic lymphoma kinase (Ki-1) [compound 4471986] | 905 | 4,069 |  |
| 4515877: IMAGE clone protein: Frk, fyn-related kinase [compound 4515877] | 271,855 | 148,139 |  |
| COc1cc2ncnc(Nc3cccc(Cl)c3)c2cc1OC [AG-1478] |  |  | pIC50 [3]: 8.52 |
| CCOc1cc2ncnc(Nc3cccc(Br)c3)c2cc1OCC [Compound-56] |  |  | pIC50 [3]: 11.22 |
| CC(C)c1cc(/C=C(\C#N)C(=O)NCCCc2ccccc2)cc(C(C)C)c1O [SU-1498] |  |  | pIC50 [3]: 6.15 |
